# Columns and labels:
# hVR1 [1] = biological target: T1, hVR1 (Homo sapiens, UniProt Q8NER1); assay: Functional test on human VR1, 45° C. stimulus; format: cell-based, human being; settings: for IC50: read-out: IC50 (human being) [nM], 45° C.
# T1 construct: expressed in transfected cells; host or cells: CHO K1 cells (ECACC), stably transfected
# hVR1 [2] = biological target: T1, hVR1; assay: Functional test on VR1, FLIPR Ca2+ influx in transfected CHO K1 cells, capsaicin; format: cell-based, human being; design: key to Ki (human being) [nM] Cap: agonist / partial agonist / no effect: AG=agonist; pAG=partial agonist; NE=no effect; settings: for Ki: capsaicin (Cap), includes values given in brackets after pAG, read-out: Ki (human being) [nM] Cap
# From the text: In the process, the Ca^2+ influx is quantified in the FLIPR assay with the aid of a Ca^2+-sensitive dye (type Fluo-4, Molecular Probes Europe BV, Leiden, the Netherlands) in a fluorescent imaging plate reader (FLIPR, Molecular Devices, Sunnyvale, USA), as described hereinafter.
# II. Functional Tests Carried Out on the Vanilloid Receptor (VR1)
# The agonistic or antagonistic effect of the substances to be tested on the vanilloid receptor 1 (VR1) can also be determined using the following assay. In this assay, the influx of Ca^2+ through the channel is quantified with the aid of a Ca^2+-sensitive dye (type Fluo-4, Molecular Probes Europe BV, Leiden, the Netherlands) in a fluorescent imaging plate reader (FLIPR, Molecular Devices, Sunnyvale, USA).
# Chinese hamster ovary cells (CHO K1 cells, European Collection of Cell Cultures (ECACC) United Kingdom) are stably transfected with the VR1 gene. For functional testing, these cells are plated out on poly-D-lysine-coated black 96-well plates having a clear base (BD Biosciences, Heidelberg, Germany) at a density of 25,000 cells/well. The cells are incubated overnight at 37° C. and 5% CO2 in a culture medium (Ham's F12 nutrient mixture, 10% by volume of FCS (foetal calf serum), 18 μg/ml of L-proline). The next day the cells are incubated with Fluo-4 (Fluo-4 2 μM, 0.01% by volume of Pluronic F127, Molecular Probes in HBSS (Hank's buffered saline solution), Gibco Invitrogen GmbH, Karlsruhe, Germany) for 30 minutes at 37° C. Subsequently, the plates are washed three times with HBSS buffer and after further incubation for 15 minutes at RT used for Ca^2+ measurement in a FLIPR assay. The Ca^2+-dependent fluorescence is measured before and after the addition of the substances to be tested (λex wavelength=488 nm, λem=540 nm). Quantification is carried out by measuring the highest fluorescence intensity (FC, fluorescence counts) over time.
# The FLIPR protocol consists of 2 substance additions. First the compounds to be tested (10 μM) are pipetted onto the cells and the Ca^2+ influx is compared with the control (capsaicin 10 μM) (% activation based on the Ca^2+ signal after the addition of 10 μM of capsaicin). After 5 minutes' incubation, 100 nM of capsaicin are applied and the Ca^2+ influx is also determined.
# Desensitising agonists and antagonists led to suppression of the Ca^2+ influx. The % inhibition is calculated compared to the maximum achievable inhibition with 10 μM of capsaicin.
# Starting from the percentage displacement caused by different concentrations of the compounds to be tested of general formula I, IC50 inhibitory concentrations which cause a 50-per cent displacement of capsaicin were calculated. Ki values for the test substances were obtained by conversion by means of the Cheng-Prusoff equation (Cheng, Prusoff; Biochem. Pharmacol. 22, 3099-3108, 1973).
# The affinity of the compounds according to the invention for the vanilloid receptor 1 (VR1/TRPV1 receptor) was determined as described hereinbefore (pharmacological methods I and II respectively).
# [3] = read-out: IC50 (human being), 45° C.: inhibition (as a percentage)
# T1 sequence (Q8NER1 whole entry): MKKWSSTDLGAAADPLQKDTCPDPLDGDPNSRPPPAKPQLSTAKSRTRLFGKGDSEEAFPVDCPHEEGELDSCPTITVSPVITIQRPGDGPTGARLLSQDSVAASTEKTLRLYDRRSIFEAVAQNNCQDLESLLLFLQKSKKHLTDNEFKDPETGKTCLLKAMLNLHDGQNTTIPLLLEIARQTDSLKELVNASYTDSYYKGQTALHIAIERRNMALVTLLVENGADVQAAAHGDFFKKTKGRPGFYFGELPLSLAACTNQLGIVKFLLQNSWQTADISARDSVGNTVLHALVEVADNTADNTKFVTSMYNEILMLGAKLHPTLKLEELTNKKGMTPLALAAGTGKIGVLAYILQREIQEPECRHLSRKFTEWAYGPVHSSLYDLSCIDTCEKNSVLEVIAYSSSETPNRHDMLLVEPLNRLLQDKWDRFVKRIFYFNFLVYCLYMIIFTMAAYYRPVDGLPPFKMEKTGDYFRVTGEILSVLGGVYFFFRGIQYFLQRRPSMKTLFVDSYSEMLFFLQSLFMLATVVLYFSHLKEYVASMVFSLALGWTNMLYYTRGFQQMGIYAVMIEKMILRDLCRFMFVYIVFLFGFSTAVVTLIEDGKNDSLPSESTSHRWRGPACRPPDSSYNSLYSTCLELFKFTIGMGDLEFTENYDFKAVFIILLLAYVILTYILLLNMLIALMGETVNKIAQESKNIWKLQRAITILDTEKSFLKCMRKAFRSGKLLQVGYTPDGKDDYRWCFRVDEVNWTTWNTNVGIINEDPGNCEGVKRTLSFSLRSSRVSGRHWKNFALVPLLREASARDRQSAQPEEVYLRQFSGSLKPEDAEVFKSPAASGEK
SMILES,IC50 (hVR1 [1]) [nM],Ki (hVR1 [2]) [nM],other results
"CC(C(=O)NCc1cc(C(F)(F)F)nn1-c1cccc(Cl)c1)c1cccc2c1CC=C2 (stereo not drawn) [Example 24, N-((1-(3-chlorophenyl)-3-(trifluoromethyl)-1H-pyrazol-5-yl)methyl)-2-(1H-inden-7-yl)propanamide]",686,4,–
"O=C(NCc1cc(C(F)(F)F)nn1-c1cccc(Cl)c1)Nc1ccc2c(c1)OCO2 [Example 83, 1-(Benzo[d][1,3]dioxol-5-yl)-3-((1-(3-chlorophenyl)-3-(trifluoromethyl)-1H-pyrazol-5-yl)methyl)urea]",–,50.7,inhibition at 2.5 µM (hVR1 [1]; [3]): 16%
"O=C(NCc1cc(C(F)(F)F)nn1-c1cccc(Cl)c1)Nc1ccc2scnc2c1 [Example 97, 1-(benzo[d]thiazol-5-yl)-3-((1-(3-chlorophenyl)-3-(trifluoromethyl)-1H-pyrazol-5-yl)methyl)urea]",396,4.9,–
"CC(C)(C)c1cc(CNC(=O)Nc2cccc3ccc(O)cc23)n(-c2cccc(Cl)c2)n1 [Example 101, 1-((3-tert-butyl-1-(3-chlorophenyl)-1H-pyrazol-5-yl)methyl)-3-(7-hydroxynaphthalen-1-yl)urea]",–,0.5,inhibition at 2.5 µM (hVR1 [1]; [3]): 46%
"O=C(NCc1cc(C(F)(F)F)nn1-c1cccc(Cl)c1)Nc1cccc2ccc(O)cc12 [Example 102, 1-((1-(3-chlorophenyl)-3-(trifluoromethyl)-1H-pyrazol-5-yl)methyl)-3-(7-hydroxynaphthalen-1-yl)urea]",–,0.2,inhibition at 2.5 µM (hVR1 [1]; [3]): 48%
"CC(C)(C)c1cc(CNC(=O)Nc2cccc3cccnc23)n(-c2cccc(Cl)c2)n1 [Example 107, 1-((3-tert-butyl-1-(3-chlorophenyl)-1H-pyrazol-5-yl)methyl)-3-(quinolin-8-yl)urea]",375,22.4,–
"O=C(NCc1cc(C(F)(F)F)nn1-c1cccc(Cl)c1)Nc1cccc2cnccc12 [Example 110, 1-((1-(3-chlorophenyl)-3-(trifluoromethyl)-1H-pyrazol-5-yl)methyl)-3-(isoquinolin-5-yl)urea]",110,0.4,–
"Cc1cc2c(NC(=O)NCc3cc(C(F)(F)F)nn3-c3cccc(Cl)c3)cccc2[nH]1 [Example 192, 1-((1-(3-chlorophenyl)-3-(trifluoromethyl)-1H-pyrazol-5-yl)methyl)-3-(2-methyl-1H-indol-4-yl)urea]",–,10.8,–
"CC(C(=O)NCc1cc(C(C)(C)C)nn1-c1cccc(Cl)c1)c1cc(F)cc2[nH]ncc12 (stereo not drawn) [Example 193, N-((3-tert-butyl-1-(3-chlorophenyl)-1H-pyrazol-5-yl)methyl)-2-(6-fluoro-1H-indazol-4-yl)propanamide]",–,1.6,–
"O=C(NCc1cc(C(F)(F)F)nn1-c1cccc(Cl)c1)Nc1cc(F)cc2[nH]ncc12 [Example 194, 1-((1-(3-chlorophenyl)-3-(trifluoromethyl)-1H-pyrazol-5-yl)methyl)-3-(6-fluoro-1H-indazol-4-yl)urea]",–,8.4,–
"CC(C(=O)NCc1cc(C(F)(F)F)nn1-c1cccc(Cl)c1)c1ccc(F)c2[nH]ncc12 (stereo not drawn) [Example 195, N-((1-(3-chlorophenyl)-3-(trifluoromethyl)-1H-pyrazol-5-yl)methyl)-2-(7-fluoro-1H-indazol-4-yl)propanamide]",–,6.8,–
"O=C(NCc1cc(C(F)(F)F)nn1-c1cccc(Cl)c1)Nc1cccc2c(=O)[nH]ccc12 [Example 196, 1-((1-(3-chlorophenyl)-3-(trifluoromethyl)-1H-pyrazol-5-yl)methyl)-3-(1-oxo-1,2-dihydroisoquinolin-5-yl)urea]",–,–,Ki (human being) [nM] Cap: agonist / partial agonist / no effect (hVR1 [2]): AG
"CC(C(=O)NCc1cc(C(F)(F)F)nn1-c1cccc(Cl)c1)c1cccc2c(F)cccc12 (stereo not drawn) [Example 197, N-((1-(3-chlorophenyl)-3-(trifluoromethyl)-1H-pyrazol-5-yl)methyl)-2-(5-fluoronaphthalen-1-yl)propanamide]",–,5.8,–
"CC(C(=O)NCc1cc(C(F)(F)F)nn1-c1cccc(Cl)c1)c1cccc2c1ccc[n+]2[O-] (stereo not drawn) [Example 198, 5-(1-((1-(3-chlorophenyl)-3-(trifluoromethyl)-1H-pyrazol-5-yl)methylamino)-1-oxopropan-2-yl)quinolin 1-oxide]",–,–,Ki (human being) [nM] Cap: agonist / partial agonist / no effect (hVR1 [2]): AG
"CCCCCn1nc(C(F)(F)F)cc1CNC(=O)C(C)c1cccc2[nH]ncc12 (stereo not drawn) [Example 199, 2-(1H-indazol-4-yl)-N-((1-pentyl-3-(trifluoromethyl)-1H-pyrazol-5-yl)methyl)propanamide]",–,33.5,–
"Cc1c(C(F)(F)F)nn(-c2cccc(Cl)c2)c1CNC(=O)C(C)c1ccc2c(c1)OCCO2 (stereo not drawn) [Example 200, N-((1-(3-chlorophenyl)-4-methyl-3-(trifluoromethyl)-1H-pyrazol-5-yl)methyl)-2-(2,3-dihydrobenzo[b][1,4]dioxin-6-yl)propanamide]",–,17.1,–
"O=C(NCc1cc(C(F)(F)F)nn1-c1cccc(Cl)c1)Nc1c(Cl)ccc2[nH]ncc12 [Example 205, 1-(5-chloro-1H-indazol-4-yl)-3-((1-(3-chlorophenyl)-3-(trifluoromethyl)-1H-pyrazol-5-yl)methyl)urea]",–,0.8,–
"CC(C(=O)NCc1cc(C(F)(F)F)nn1-c1cccc(Cl)c1)c1cccc2c1CCC2=O (stereo not drawn) [Example 206, N-((1-(3-chlorophenyl)-3-(trifluoromethyl)-1H-pyrazol-5-yl)methyl)-2-(1-oxo-2,3-dihydro-1H-inden-4-yl)propanamide]",–,0.4,Ki (human being) [nM] Cap: agonist / partial agonist / no effect (hVR1 [2]): pAG
"CC(C(=O)NCc1cc(C(F)(F)F)nn1-c1cccc(Cl)c1)c1cccc2c1CCC2O (stereo not drawn) [Example 207, N-((1-(3-chlorophenyl)-3-(trifluoromethyl)-1H-pyrazol-5-yl)methyl)-2-(1-hydroxy-2,3-dihydro-1H-inden-4-yl)propanamide]",–,2.4,"inhibition at 10 µM (hVR1 [1]; @ 10 μM, read-out: IC50 (human being), 45° C.: inhibition (as a percentage)): 14%"
"CC(C(=O)NCc1cc(C(F)(F)F)nn1-c1cccc(Cl)c1)c1cccc2c1CC(O)C2 (stereo not drawn) [Example 208, N-((1-(3-chlorophenyl)-3-(trifluoromethyl)-1H-pyrazol-5-yl)methyl)-2-(2-hydroxy-2,3-dihydro-1H-inden-4-yl)propanamide]",298,62.6,–
"CC(C(=O)NCc1cc(C(F)(F)F)nn1-c1cccc(Cl)c1)c1cccc2cn[nH]c12 (stereo not drawn) [Example 210, N-((1-(3-chlorophenyl)-3-(trifluoromethyl)-1H-pyrazol-5-yl)methyl)-2-(1H-indazol-7-yl)propanamide]",–,8.1,–
"CC(C(=O)NCc1cc(C(F)(F)F)nn1-c1cccc(Cl)c1)c1cccc2cc(F)ccc12 (stereo not drawn) [Example 211, N-((1-(3-chlorophenyl)-3-(trifluoromethyl)-1H-pyrazol-5-yl)methyl)-2-(6-fluornaphthalen-1-yl)propanamide]",154,–,–
"COc1ccc2cccc(C(C)C(=O)NCc3cc(C(F)(F)F)nn3-c3cccc(Cl)c3)c2c1 (stereo not drawn) [Example 212, N-((1-(3-chlorophenyl)-3-(trifluoromethyl)-1H-pyrazol-5-yl)methyl)-2-(7-methoxynaphthalen-1-yl)propanamide]",626,8.3,–
"CC(C(=O)NCc1cc(C(F)(F)F)nn1-c1cccc(Cl)c1)c1cccc2cnc(Cl)cc12 (stereo not drawn) [Example 213, 2-(3-chloroisoquinolin-5-yl)-N-((1-(3-chlorophenyl)-3-(trifluoromethyl)-1H-pyrazol-5-yl)methyl)propanamide]",264,0.07,–

# Reference: patent US8334315B2, “Substituted aromatic carboxamide and urea derivatives as vanilloid receptor ligands” (Gruenenthal GmbH, priority 2009, dated 2012)
